Measured values from ChEMBL document CHEMBL5137064, “Therapeutic Potential and Activity Modulation of the Protein Lysine Deacylase Sirtuin 5” (J Med Chem, 2022).
One block for each compound: values may come before it. *1 amine or outer side, *2 acyl side, *3 side chain or, on linkers, in order; H or OH if unused. Where a SMILES comes first, the peptide text is derived from it. Side-chain parts run from the residue outwards. The star is where a group is joined. βAsp = O=C(O)[C@H](CC(=O)[*:2])N[*:1]; X2 = CC(CC(=O)*)(C(=O)O)c1ccccc1; X4 = CC(=O)SC(CC(=O)*)C(=O)O; X3 = CCCCC(CC(=O)*)C(=O)O; Cbz = O=C(OCc1ccccc1)*; Bz = O=C(c1ccccc1)*

Assays:
[1] = target: T1, NAD-dependent protein deacylase sirtuin-5, mitochondrial (Homo sapiens, UniProt Q9NXA8); experiment: Inhibition of human recombinant SIRT5 using fluorogenic Benzyl-Lys(Succinyl)-AMC as substrate incubated for 2 hrs measured by fluoroscence based microplate reader method
Target sequence in this assay (Q9NXA8 whole entry): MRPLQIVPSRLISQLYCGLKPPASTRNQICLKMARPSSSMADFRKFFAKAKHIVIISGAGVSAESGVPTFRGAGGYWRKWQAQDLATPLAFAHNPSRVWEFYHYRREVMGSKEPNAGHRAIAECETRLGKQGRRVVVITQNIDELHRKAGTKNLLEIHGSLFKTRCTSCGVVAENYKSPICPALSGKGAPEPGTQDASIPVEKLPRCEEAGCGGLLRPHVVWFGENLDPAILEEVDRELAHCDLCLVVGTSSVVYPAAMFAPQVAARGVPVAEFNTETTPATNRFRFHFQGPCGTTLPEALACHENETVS

[2] = target: T1, NAD-dependent protein deacylase sirtuin-5, mitochondrial; experiment: Binding affinity to SIRT5 (unknown origin) assessed as desuccinylation activity by measuring dissociation constant
Target sequence in this assay (Q9NXA8 whole entry): as above

[3] = target: T1, NAD-dependent protein deacylase sirtuin-5, mitochondrial; experiment: Binding affinity to SIRT5 (unknown origin) assessed as desuccinylation activity by measuring inhibition constant
Target sequence in this assay (Q9NXA8 whole entry): as above

[4] = target: T1, NAD-dependent protein deacylase sirtuin-5, mitochondrial; experiment: Inhibition of SIRT5 desuccinylase activity (unknown origin) using succinyl-lysine as substrate
Target sequence in this assay (Q9NXA8 whole entry): as above

[5] = target: T1, NAD-dependent protein deacylase sirtuin-5, mitochondrial; experiment: Inhibition of SIRT5 deglutarylase activity (unknown origin)
Target sequence in this assay (Q9NXA8 whole entry): as above

[6] = target: T1, NAD-dependent protein deacylase sirtuin-5, mitochondrial; experiment: Binding affinity to SIRT5 (unknown origin) assessed as deglutarylase activity by measuring inhibition constant
Target sequence in this assay (Q9NXA8 whole entry): as above

MOLM-13 = experiment: Cytotoxicity against human MOLM-13 cells; format: functional, cell-based
SKM-1 [7] = experiment: Induction of apoptosis in human SKM-1 cells at 20 uM relative to control; format: functional
OCI-AML2 [8] = experiment: Induction of apoptosis in human OCI-AML2 cells at 20 uM relative to control; format: functional
OCI-AML2 [9] = experiment: cells; conditions: Homo sapiens
Description: Cytotoxicity against human OCI-AML2 cells

SKM-1 [10] = experiment: cells; conditions: Homo sapiens
Description: Cytotoxicity against human SKM-1 cells

[11] = target: T2, NAD-dependent protein deacetylase sirtuin-1 (Homo sapiens) (UniProt Q96EB6); experiment: Inhibition of SIRT1 (unknown origin) at 1 uM relative to control
T2 sequence (whole entry): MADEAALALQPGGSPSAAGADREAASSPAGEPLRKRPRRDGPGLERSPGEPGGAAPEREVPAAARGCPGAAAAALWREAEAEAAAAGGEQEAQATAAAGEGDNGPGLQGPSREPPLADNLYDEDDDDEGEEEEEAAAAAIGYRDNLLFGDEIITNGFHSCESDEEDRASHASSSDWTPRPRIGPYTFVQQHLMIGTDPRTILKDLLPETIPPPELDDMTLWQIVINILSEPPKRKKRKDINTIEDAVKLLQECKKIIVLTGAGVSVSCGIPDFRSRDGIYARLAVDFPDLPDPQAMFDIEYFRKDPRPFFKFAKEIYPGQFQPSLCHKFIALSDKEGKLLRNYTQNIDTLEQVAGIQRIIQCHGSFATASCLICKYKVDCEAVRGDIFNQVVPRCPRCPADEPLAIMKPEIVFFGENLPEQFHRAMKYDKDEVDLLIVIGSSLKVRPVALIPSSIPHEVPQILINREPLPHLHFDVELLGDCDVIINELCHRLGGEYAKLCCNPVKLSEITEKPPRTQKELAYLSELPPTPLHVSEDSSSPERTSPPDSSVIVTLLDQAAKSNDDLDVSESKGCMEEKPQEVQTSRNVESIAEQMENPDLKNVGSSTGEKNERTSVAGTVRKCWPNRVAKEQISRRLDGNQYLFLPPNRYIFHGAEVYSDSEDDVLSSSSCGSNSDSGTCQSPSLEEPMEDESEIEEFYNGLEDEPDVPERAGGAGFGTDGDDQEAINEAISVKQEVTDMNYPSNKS

HEK-293T = experiment: Cytotoxicity against human HEK293T cells at 100 uM relative to control; format: toxicity, cell-based
[12] = target: T3, NAD-dependent protein deacetylase sirtuin-3, mitochondrial (Homo sapiens) (UniProt Q9NTG7); experiment: Inhibition of SIRT3 (unknown origin) at 50 uM incubated for 15 mins by fluorometric assay relative to control
T3 sequence (whole entry): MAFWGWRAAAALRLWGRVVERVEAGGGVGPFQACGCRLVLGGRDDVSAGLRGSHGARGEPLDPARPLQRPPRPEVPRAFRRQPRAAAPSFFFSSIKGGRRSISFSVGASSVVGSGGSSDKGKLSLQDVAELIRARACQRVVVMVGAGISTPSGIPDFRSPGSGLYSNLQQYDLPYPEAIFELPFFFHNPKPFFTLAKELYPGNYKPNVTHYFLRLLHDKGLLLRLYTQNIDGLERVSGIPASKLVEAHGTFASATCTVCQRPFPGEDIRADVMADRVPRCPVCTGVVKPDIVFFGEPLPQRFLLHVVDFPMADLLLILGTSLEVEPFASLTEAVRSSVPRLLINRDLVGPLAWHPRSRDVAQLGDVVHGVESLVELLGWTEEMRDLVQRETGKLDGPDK

[13] = target: T1, NAD-dependent protein deacylase sirtuin-5, mitochondrial; experiment: Inhibition of SIRT5 (unknown origin) at 50 uM incubated for 15 mins by fluorometric assay relative to control
Target sequence in this assay (Q9NXA8 37-310 limits assumed): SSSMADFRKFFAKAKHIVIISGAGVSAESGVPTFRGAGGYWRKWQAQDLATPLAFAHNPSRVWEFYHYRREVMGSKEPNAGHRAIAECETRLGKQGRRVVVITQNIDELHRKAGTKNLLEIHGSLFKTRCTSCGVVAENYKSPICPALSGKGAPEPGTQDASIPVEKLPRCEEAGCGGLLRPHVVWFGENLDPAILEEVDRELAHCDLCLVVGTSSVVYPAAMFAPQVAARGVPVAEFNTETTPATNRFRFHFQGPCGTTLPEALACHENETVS

[14] = target: T2, NAD-dependent protein deacetylase sirtuin-1 (Homo sapiens); experiment: Inhibition of SIRT1 (unknown origin) at 50 uM relative to control
[15] = target: T4, NAD-dependent protein deacetylase sirtuin-2 (Homo sapiens) (UniProt Q8IXJ6); experiment: Inhibition of SIRT2 (unknown origin) at 50 uM relative to control
T4 sequence (whole entry): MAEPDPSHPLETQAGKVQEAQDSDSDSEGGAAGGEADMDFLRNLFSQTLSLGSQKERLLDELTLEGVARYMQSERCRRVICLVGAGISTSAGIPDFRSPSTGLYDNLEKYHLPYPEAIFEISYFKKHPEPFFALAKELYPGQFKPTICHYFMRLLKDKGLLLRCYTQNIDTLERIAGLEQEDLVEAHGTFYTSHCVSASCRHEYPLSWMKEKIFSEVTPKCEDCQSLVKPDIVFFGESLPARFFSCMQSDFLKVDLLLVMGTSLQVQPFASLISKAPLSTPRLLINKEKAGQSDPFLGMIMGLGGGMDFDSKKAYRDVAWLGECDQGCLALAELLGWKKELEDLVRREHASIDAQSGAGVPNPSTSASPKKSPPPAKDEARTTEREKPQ

[16] = target: T3, NAD-dependent protein deacetylase sirtuin-3, mitochondrial (Homo sapiens); experiment: Inhibition of SIRT3 (unknown origin) at 50 uM relative to control

Compound: N#C/C(=C\c1ccc(-c2ccc(C(=O)O)cc2)o1)C(=O)Nc1ccc(C#N)c(C(F)(F)F)c1
IC50 [1]: 13.9 µM

Compound: CC(=O)NCCCC[C@H](NC(=O)[C@H](CCCCNC(=S)NCCC(=O)O)NC(=O)C(CCCNC(=N)N)NC(C)=O)C(N)=O (stereo partly drawn)
IC50 [4]: 93.1 µM

Compound: CC(C)C(OC(=O)C(C)(C)C)n1nnnc1CCCNC(=S)NCCCC[C@H](NS(=O)(=O)c1cccc(F)c1)C(=O)N[C@@H](Cc1c[nH]c2ccccc12)C(=O)NC1CCC1 (stereo partly drawn)
IC50 (MOLM-13): 24 µM
inhibition [11]: 76%
Activity (HEK-293T): 35%
IC50 (OCI-AML2 [9]): 20 µM
IC50 (SKM-1 [10]): 9 µM

Compound: O=C(CC[C@H](NC(=O)OCc1ccccc1)C(=O)O)NCCCC[C@H](NC(=O)OCc1ccccc1)C(=O)Nc1ccccc1
inhibition [12]: 8%
inhibition [13]: 42%

Compound: CC(=O)SC(CC(=O)NCCCC[C@H](NC(=O)[C@H](CC(C)C)NC(=O)[C@@H](NC(=O)CNC(=O)c1ccccc1)C(C)C)C(=O)N[C@@H](CCC(=O)O)C(=O)N[C@@H](Cc1ccc(O)cc1)C(=O)NCC(=O)N[C@H](C(N)=O)C(C)C)C(=O)O (stereo partly drawn) (Bz-GVLK(X4)EYGV-NH2)
Ki [3]: 10.6 µM

Compound: O=C(O)CCNC(=S)NCCCC[C@H](NS(=O)(=O)c1cccc(F)c1)C(=O)N[C@@H](Cc1c[nH]c2ccccc12)C(=O)NC1CC1
IC50 [5]: 0.26 µM

Compound: CC(C)C[C@H](NC(=O)[C@@H](NC(=O)CNC(=O)c1ccccc1)C(C)C)C(=O)N[C@@H](CCCCNC(=O)CC(C)(C(=O)O)c1ccccc1)C(=O)N[C@@H](CCC(=O)O)C(=O)N[C@@H](Cc1ccc(O)cc1)C(=O)NCC(=O)N[C@H](C(N)=O)C(C)C (stereo partly drawn) (Bz-GVLK(X2)EYGV-NH2)
Ki [3]: 4.3 µM
inhibition [14]: < 1%
inhibition [15]: 4%
inhibition [16]: < 1%

Continued, in another order:

Kd [2]: 5.78 µM
Ki [3]: 38.1 µM
Compound: CC(C)C[C@H](NC(=O)[C@@H](NC(=O)CNC(=O)c1ccccc1)C(C)C)C(=O)N[C@@H](CCCCNC(=O)C[C@H](NC(=O)OCc1ccccc1)C(=O)O)C(=O)N[C@@H](CCC(=O)O)C(=O)N[C@@H](Cc1ccc(O)cc1)C(=O)NCC(=O)N[C@H](C(N)=O)C(C)C (Bz-GVLK([βAsp-Cbz])EYGV-NH2)

IC50 [5]: 0.9 µM
Compound: O=C(NC1CCC1)[C@H](Cc1c[nH]c2ccccc12)NC(=O)[C@H](CCCCNC(=S)NCCc1noc(=S)[nH]1)NS(=O)(=O)c1cccc(F)c1

Ki [6]: 0.006 µM
IC50 (OCI-AML2 [9]): > 20 µM
IC50 (SKM-1 [10]): 10 µM
Compound: O=C(O)CCNC(=S)NCCCC[C@H](NS(=O)(=O)c1cccc(F)c1)C(=O)N[C@@H](Cc1c[nH]c2ccccc12)C(=O)NC1CCC1
IC50 (MOLM-13): 29 µM
Activity (SKM-1 [7]): >80%
Activity (OCI-AML2 [8]): 25%

IC50 [1]: 101 µM
Compound: Cc1ccc(NC(=O)/C(C#N)=C/c2ccc(-c3cccc(C(=O)O)c3)o2)cc1C

IC50 [1]: 57.4 µM
Compound: Cc1ccc(NC(=O)/C(C#N)=C/c2ccc(-c3ccc(C(=O)O)cc3C)o2)cc1C

Ki [3]: 17.2 µM
Compound: CCCCC(CC(=O)NCCCC[C@H](NC(=O)[C@H](CC(C)C)NC(=O)[C@@H](NC(=O)CNC(=O)c1ccccc1)C(C)C)C(=O)N[C@@H](CCC(=O)O)C(=O)N[C@@H](Cc1ccc(O)cc1)C(=O)NCC(=O)N[C@H](C(N)=O)C(C)C)C(=O)O (stereo partly drawn) (Bz-GVLK(X3)EYGV-NH2)

IC50 [1]: 22.7 µM
Compound: Cc1ccc(NC(=O)/C(C#N)=C/c2ccc(-c3ccc(C(=O)O)cc3)o2)cc1C
